Measured values published in patent US20120142750A1, “INDOLEAMINE 2,3-DIOXYGENASE PATHWAYS IN THE GENERATION OF REGULATORY T CELLS” (Regents of the University of Minnesota, priority 2005, published 2012).
Entries after “also recorded” stand apart in the source; their conditions may differ.

Tested on: OT-I and A1 T cells
Assay: Bystander-suppression assays (TDLN IDO+ DCs, OT-I, Tregs, A1 bystander cells)
Type: cell-based, mouse
Procedure: Isolation of tumor-draining lymph node DCs.
Bystander-suppression assays. All experiments were repeated 3-5 times unless otherwise indicated. OT-I cells were sorted as CD8^+ spleen cells, gated on the CD11c^NEGB220^NEG fraction to exclude DCs. Sorted DCs from TDLN were mixed with 1×10^5 responder cells at a 1:40 ratio in V-bottom culture wells (Nunc). […] Sorted CD4^+ A1 cells (1×10^5) and CD11c^+ DCs (1:40 ratio) from normal CBA spleen were added as bystander cells. […] For transwell assays, 96-Multiwell insert plates (1 uM pore size, BD Falcon) were used and the number of cells in all groups was doubled.
Feeder layer. Plasmacytoid DCs and Tregs have been reported to require survival factors to maintain viability and function in vitro.
Readouts for T cell proliferation. […] After 72 hours, assays were stained for CD4 vs CD8 and CFSE fluorescence analyzed gated on CD4^+ (A1) and CD8^+ (OT-I) populations.
Anti-CD3 proliferation and preactivation assays. […] For pre-activation studies, 2×10^4 Tregs were cultured with 1×10^5T-depleted spleen cells plus 0.1 ug/ml αCD3 antibody and 200 U/ml IL-2 (R&D Systems) for 48 hours.

Cn1cc(C[C@@H](N)C(=O)O)c2ccccc21 [Inhibitor 1MT, 1-methyl-D-tryptophan] was tested, and the “Treg-mediated suppression of bystander cells when IDO blocked” value (200 uM 1MT, without αCD3 mitogen) was “no suppression; also recorded: no spontaneous suppressor activity”, the “αCD3-induced suppression in transwell experiments” value (10-fold more Tregs, αCD3 mitogen added) was “not blocked” and the “suppression of bystander cells by Tregs in transwell chambers” value (transwell, Tregs with IDO+ DCs in lower chamber) was “abrogated”.
